Measured values as given in ChEMBL document CHEMBL1147144, “Novel styrylpyridines as probes for SPECT imaging of amyloid plaques” (J Med Chem, 2007).

Columns and labels:
Muscle tissue [1] = experiment: Biodistribution in ICR mouse muscle at 5 to 10 uCi, iv after 2 mins; type: ADME, organism-based; settings: in vivo
Blood [2] = experiment: Biodistribution in ICR mouse blood at 5 to 10 uCi, iv after 1 hr; type: ADME, organism-based; settings: in vivo
Brain [3] = experiment: Ratio of drug distribution in brain after 2 mins to 30 mins in ICR mouse at 5 to 10 uCi, iv; type: ADME, organism-based; settings: in vivo
Muscle tissue [4] = experiment: Biodistribution in ICR mouse muscle at 5 to 10 uCi, iv after 1 hr; type: ADME, organism-based; settings: in vivo
Heart [5] = experiment: Biodistribution in ICR mouse heart at 5 to 10 uCi, iv after 2 hrs; type: ADME, organism-based; settings: in vivo
Heart [6] = experiment: Biodistribution in ICR mouse heart at 5 to 10 uCi, iv after 30 mins; type: ADME, organism-based; settings: in vivo, 0.5 h
Thyroid gland [7] = experiment: Biodistribution in ICR mouse thyroid at 5 to 10 uCi, iv after 2 mins; type: ADME, organism-based; settings: in vivo
Liver [8] = experiment: Biodistribution in ICR mouse liver at 5 to 10 uCi, iv after 1 hr; type: ADME, organism-based; settings: in vivo
Zone of skin [9] = experiment: Biodistribution in ICR mouse skin at 5 to 10 uCi, iv after 2 mins; type: ADME, organism-based; settings: in vivo
Spleen [10] = experiment: Biodistribution in ICR mouse spleen at 5 to 10 uCi, iv after 1 hr; type: ADME, organism-based; settings: in vivo
Heart [11] = experiment: Biodistribution in ICR mouse heart at 5 to 10 uCi, iv after 2 mins; type: ADME, organism-based; settings: in vivo
Thyroid gland [12] = experiment: Biodistribution in ICR mouse thyroid at 5 to 10 uCi, iv after 30 mins; type: ADME, organism-based; settings: in vivo, 0.5 h
Brain [13] = experiment: Biodistribution in ICR mouse brain at 5 to 10 uCi, iv after 30 mins; type: ADME, organism-based; settings: in vivo, 0.5 h
Brain [14] = experiment: Biodistribution in ICR mouse brain at 5 to 10 uCi, iv after 1 hr; type: ADME, organism-based; settings: in vivo
Liver [15] = experiment: Biodistribution in ICR mouse liver at 5 to 10 uCi, iv after 2 hrs; type: ADME, organism-based; settings: in vivo
Spleen [16] = experiment: Biodistribution in ICR mouse spleen at 5 to 10 uCi, iv after 2 mins; type: ADME, organism-based; settings: in vivo
Heart [17] = experiment: Biodistribution in ICR mouse heart at 5 to 10 uCi, iv after 1 hr; type: ADME, organism-based; settings: in vivo
Blood [18] = experiment: Biodistribution in ICR mouse blood at 5 to 10 uCi, iv after 2 mins; type: ADME, organism-based; settings: in vivo
Kidney [19] = experiment: Biodistribution in ICR mouse kidney at 5 to 10 uCi, iv after 1 hr; type: ADME, organism-based; settings: in vivo
Muscle tissue [20] = experiment: Biodistribution in ICR mouse muscle at 5 to 10 uCi, iv after 30 mins; type: ADME, organism-based; settings: in vivo, 0.5 h
Blood [21] = experiment: Biodistribution in ICR mouse blood at 5 to 10 uCi, iv after 2 hrs; type: ADME, organism-based; settings: in vivo
Kidney [22] = experiment: Biodistribution in ICR mouse kidney at 5 to 10 uCi, iv after 2 hrs; type: ADME, organism-based; settings: in vivo
Muscle tissue [23] = experiment: Biodistribution in ICR mouse muscle at 5 to 10 uCi, iv after 2 hrs; type: ADME, organism-based; settings: in vivo
Thyroid gland [24] = experiment: Biodistribution in ICR mouse thyroid at 5 to 10 uCi, iv after 2 hrs; type: ADME, organism-based; settings: in vivo
Lung [25] = experiment: Biodistribution in ICR mouse lung at 5 to 10 uCi, iv after 30 mins; type: ADME, organism-based; settings: in vivo, 0.5 h
Kidney [26] = experiment: Biodistribution in ICR mouse kidney at 5 to 10 uCi, iv after 2 mins; type: ADME, organism-based; settings: in vivo
Zone of skin [27] = experiment: Biodistribution in ICR mouse skin at 5 to 10 uCi, iv after 30 mins; type: ADME, organism-based; settings: in vivo, 0.5 h
Zone of skin [28] = experiment: Biodistribution in ICR mouse skin at 5 to 10 uCi, iv after 2 hrs; type: ADME, organism-based; settings: in vivo
Blood [29] = experiment: Biodistribution in ICR mouse blood at 5 to 10 uCi, iv after 30 mins; type: ADME, organism-based; settings: in vivo, 0.5 h
[30] = Partition coefficient, log P at pH 7.4; type: physicochemical; settings: octanol/water
Brain [31] = experiment: Biodistribution in ICR mouse brain at 5 to 10 uCi, iv after 2 hrs; type: ADME, organism-based; settings: in vivo
Lung [32] = experiment: Biodistribution in ICR mouse lung at 5 to 10 uCi, iv after 2 mins; type: ADME, organism-based; settings: in vivo
Lung [33] = experiment: Biodistribution in ICR mouse lung at 5 to 10 uCi, iv after 1 hr; type: ADME, organism-based; settings: in vivo
Liver [34] = experiment: Biodistribution in ICR mouse liver at 5 to 10 uCi, iv after 30 mins; type: ADME, organism-based; settings: in vivo, 0.5 h
Lung [35] = experiment: Biodistribution in ICR mouse lung at 5 to 10 uCi, iv after 2 hrs; type: ADME, organism-based; settings: in vivo
Brain [36] = experiment: Biodistribution in ICR mouse brain at 5 to 10 uCi, iv after 2 mins; type: ADME, organism-based; settings: in vivo
Spleen [37] = experiment: Biodistribution in ICR mouse spleen at 5 to 10 uCi, iv after 30 mins; type: ADME, organism-based; settings: in vivo, 0.5 h
Zone of skin [38] = experiment: Biodistribution in ICR mouse skin at 5 to 10 uCi, iv after 1 hr; type: ADME, organism-based; settings: in vivo
Thyroid gland [39] = experiment: Biodistribution in ICR mouse thyroid at 5 to 10 uCi, iv after 1 hr; type: ADME, organism-based; settings: in vivo
Liver [40] = experiment: Biodistribution in ICR mouse liver at 5 to 10 uCi, iv after 2 mins; type: ADME, organism-based; settings: in vivo
Spleen [41] = experiment: Biodistribution in ICR mouse spleen at 5 to 10 uCi, iv after 2 hrs; type: ADME, organism-based; settings: in vivo
Kidney [42] = experiment: Biodistribution in ICR mouse kidney at 5 to 10 uCi, iv after 30 mins; type: ADME, organism-based; settings: in vivo, 0.5 h
[43] = target: Amyloid-beta precursor protein (Homo sapiens, UniProt P05067); experiment: Displacement of […] from Abeta peptide plaques in Alzheimer's disease patient brain
Chain of Amyloid-beta precursor protein (P05067 whole entry): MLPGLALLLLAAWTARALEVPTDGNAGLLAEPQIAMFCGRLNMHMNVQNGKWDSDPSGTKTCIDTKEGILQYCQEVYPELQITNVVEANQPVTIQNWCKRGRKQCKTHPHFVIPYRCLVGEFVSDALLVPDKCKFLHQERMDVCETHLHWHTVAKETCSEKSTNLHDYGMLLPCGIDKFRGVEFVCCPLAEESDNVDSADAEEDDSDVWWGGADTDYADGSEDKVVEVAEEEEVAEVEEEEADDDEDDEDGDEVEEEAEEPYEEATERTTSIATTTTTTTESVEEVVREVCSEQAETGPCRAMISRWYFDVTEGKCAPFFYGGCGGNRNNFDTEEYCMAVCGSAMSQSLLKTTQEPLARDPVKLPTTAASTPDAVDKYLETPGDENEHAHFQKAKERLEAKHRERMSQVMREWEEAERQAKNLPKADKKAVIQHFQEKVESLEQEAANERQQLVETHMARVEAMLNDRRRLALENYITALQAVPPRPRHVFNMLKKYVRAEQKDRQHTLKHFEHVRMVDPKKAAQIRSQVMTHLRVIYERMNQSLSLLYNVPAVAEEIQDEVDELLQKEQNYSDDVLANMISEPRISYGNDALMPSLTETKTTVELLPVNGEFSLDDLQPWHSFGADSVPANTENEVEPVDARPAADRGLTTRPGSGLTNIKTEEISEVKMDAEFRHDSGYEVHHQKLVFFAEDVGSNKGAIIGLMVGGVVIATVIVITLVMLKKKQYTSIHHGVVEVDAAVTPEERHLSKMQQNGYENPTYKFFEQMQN

CNc1ccc(/C=C/c2cnc(OCCOCCOCCF)c([125I])c2)cc1
Drug uptake (Muscle tissue [1]): 1.04 % ID/g | Drug uptake (Blood [2]): 2.88 % ID/g | Ratio (Brain [3]): 5.05 | Drug uptake (Muscle tissue [4]): 0.85 % ID/g | Drug uptake (Heart [5]): 1.22 % ID/g | Drug uptake (Heart [6]): 2.54 % ID/g | Drug uptake (Thyroid gland [7]): 5.74 % ID/g | Drug uptake (Liver [8]): 7.7 % ID/g | Drug uptake (Zone of skin [9]): 1.48 % ID/g | Drug uptake (Spleen [10]): 1.75 % ID/g | Drug uptake (Heart [11]): 9.85 % ID/g | Drug uptake (Thyroid gland [12]): 24.1 % ID/g | Drug uptake (Brain [13]): 1.23 % ID/g | Drug uptake (Brain [14]): 0.62 % ID/g | Drug uptake (Liver [15]): 6.25 % ID/g | Drug uptake (Spleen [16]): 4.41 % ID/g | Drug uptake (Heart [17]): 1.75 % ID/g | Drug uptake (Blood [18]): 4.37 % ID/g | Drug uptake (Kidney [19]): 2.81 % ID/g | Drug uptake (Muscle tissue [20]): 1.11 % ID/g | Drug uptake (Blood [21]): 2.21 % ID/g | Drug uptake (Kidney [22]): 1.86 % ID/g | Drug uptake (Muscle tissue [23]): 0.44 % ID/g | Drug uptake (Thyroid gland [24]): 215 % ID/g | Drug uptake (Lung [25]): 3.01 % ID/g | Drug uptake (Kidney [26]): 9.03 % ID/g | Drug uptake (Zone of skin [27]): 2.95 % ID/g | Drug uptake (Zone of skin [28]): 1.32 % ID/g | Drug uptake (Blood [29]): 3.83 % ID/g | logD [30]: 2.2 | Drug uptake (Brain [31]): 0.26 % ID/g | Drug uptake (Lung [32]): 6.85 % ID/g | Drug uptake (Lung [33]): 2.37 % ID/g | Drug uptake (Liver [34]): 11.5 % ID/g | Drug uptake (Lung [35]): 1.85 % ID/g | Drug uptake (Brain [36]): 6.22 % ID/g | Drug uptake (Spleen [37]): 2.49 % ID/g | Drug uptake (Zone of skin [38]): 2.46 % ID/g | Drug uptake (Thyroid gland [39]): 38.1 % ID/g | Drug uptake (Liver [40]): 26.2 % ID/g | Drug uptake (Spleen [41]): 1.27 % ID/g | Drug uptake (Kidney [42]): 3.4 % ID/g

OCCOc1ncc(/C=C/c2ccc(O)cc2)cc1I
Ki [43]: 15.5 nM

CNc1ccc(/C=C/c2cnc(OCCOCCOCCF)c(I)c2)cc1
Ki [43]: 9 nM

CNc1ccc(/C=C/c2cnc(OCCOCCOCCF)c(Br)c2)cc1
Ki [43]: 4.5 nM
